Results: US10316019B2, “Method for preparing the anhydrous crystalline form of isoniazid-derived hydrazone, thus produced crystalline polymorph of the anyhydrous form, use thereof for the treatment of alzheimer's disease, parkinsonism and other neurodegenerative disorders, and pharamceutical composition” (FACULDADDES CATÓLICAS, Associação sem fins Lucrativos, …, priority 2014, dated 2019)

How the values were obtained:
Wistar male rats = test: Acute toxicity test, intraperitoneal injection; assay type: in vivo; conditions: i.p. up to 300 mg kg^−1, Wistar male rats
[1] = test system: α-synuclein and Cu(II)/Cu(I); test: 1H NMR competition for Cu(II)/Cu(I) bound to α-synuclein; assay type: binding
[2] = test system: β-amyloid peptide and Zn(II); test: 2D 1H×15N HSQC NMR competition for Zn(II) bound to β-amyloid peptide; assay type: binding

For `O=C(N/N=C/c1ccc2cccc(O)c2n1)c1ccncc1` [INHHQ, 8-hydroxyquinoline-2-carboxaldehyde isonicotinoyl hydrazone], the Behavioral changes (Wistar male rats; 72 h) was “no behavioral changes”, the “Macroscopic organ abnormalities at dissection” value (Wistar male rats; after sacrifice) was “no macroscopic abnormalities” and the “Direct interaction with α-synuclein” value ([1]; 1D and 2D NMR) was “does not interact directly”. The “Effect on α-synuclein methionine 1H NMR signals in the presence of copper (Cu-α-synuclein interaction)” value ([1]; INHHQ 4 eq. added to α-synuclein + Cu(II)/Cu(I) 1 eq.) was “recovery of the original methionine signals' position”, the “Direct interaction with β-amyloid peptide” value ([2]; 1D and 2D NMR) was “does not interact directly” and the “Effect on Aβ HSQC signals in the presence of Zn(II) (Zn(II)-Aβ interaction)” value ([2]; INHHQ 4 eq. added to β-amyloid peptide + Zn(II) 1 eq.) was “partial intensity recovery for all Aβ signals”.
